In US10138271B2, “Native and agonist CTL epitopes of the MUC1 tumor antigen” (The United States of America, as represented by the …, priority 2012, dated 2018):

Tests used:
[1] = test system: MUC1-C-specific T-cell lines; assay: IFN-γ release by MUC1-C-specific T-cell lines stimulated with peptide-pulsed autologous B cells (ELISA); format: cell-based, human; details: for IFN-γ: T-cell line generated with and stimulated by the same peptide, APC:T 2:1, 24 hour supernatant; for IFN-γ production by agonist peptide-specific T-cell line, agonist versus native peptide: at each peptide concentration, FIG. 1A-C
Method: Supernatants of T cells stimulated for 24 h with peptide-pulsed autologous DCs or autologous EBV-transformed B cells in IL-2-free medium at various peptide concentrations were screened for secretion of IFN-γ by ELISA kit (BioSource International, Camarillo, Calif.). Results were expressed in pg/mL.
To evaluate the specificity of these T-cell lines, an IFN-γ release assay was performed using irradiated autologous B cells pulsed with the corresponding peptide. T cells were stimulated with irradiated autologous B cells pulsed with corresponding peptide at an APC:T cell ratio of 2:1. T cells were used at a concentration of 5×10^5/mL. 24 hour culture supernatants were collected and screened for secretion of IFN-γ. T-1-P1172(1Y), T-1-P1177(10V), and T-2-P1240(1Y) cell lines produced higher levels of IFN-γ compared to T-cell lines generated using corresponding native peptides (Table 2).
Studies were then conducted to compare the ability of the native peptides and the agonist peptides, at various concentrations, to activate the agonist peptide-specific T cells.
An additional T-cell line was then established from the PBMCs of another patient (patient 3) with colon cancer from the same clinical trial described above, using P1177 and P1177(10V), designated T-3-P1177 and T-3-P1177(10V), respectively.

T-VNTR-5 T cell line = assay: IFN-γ production by VNTR-5-specific T cell line stimulated with agonist or native peptide; format: cell-based, human; details: APC:T 3:1, 24 hours
Method: (§1) T-VNTR-3 (VNTR-3 agonist peptide-specific T cell line) and T-VNTR-5 (VNTR-5 agonist peptide-specific T cell line) were separately cultured at a concentration of 1×10^5 cells/mL. The ratio of APC:T cells was 3:1. The agonist or native peptides were used at various concentrations (see Tables 14 and 15). The supernatents were collected after 24 hours, and the amount of IFN-γ was determined. The VNTR-3- and VNTR-5-specific T cell lines stimulated with agonist peptides produced higher levels of IFN-γ as compared to stimulation with native peptides (see Tables 14 and 15).

HLA-A2 molecules [2] = molecular target: T1, HLA-A2 molecules (Homo sapiens, UniProt P04439, D140Y/D185E/D98H/E176V/E277Q/G131W/G231S/I119V/I121R/I166T/I218V/L300P/L318F/N151K/N90K/P208A/P217A/Q86G/Q94H/R138H/R169H/T345S); assay: Peptide binding to HLA-A2: upregulation of HLA-A2 expression on T2/T2A2 cells by flow cytometry; details: for T2 Binding (mean fluorescence intensity): peptide 12.5 μg/mL; for T2A2 Binding (mean fluorescence intensity): peptide 25 μg/mL
T1 construct: endogenous in cells; host or cells: T2 / T2A2 cells (174CEM-T2, transport deletion mutant)
Method: Single-color flow cytometric analysis has been previously described in Guadagni et al., Cancer Res., 50: 6248-6255 (1990). Briefly, cells were washed 3 times with cold Ca2^+- and Mg2^+-free Dulbecco's phosphate-buffered saline (PBS), and then stained for 1 h at 4° C. using FITC-conjugated monoclonal antibodies anti-HLA-A2,28 (One Lambda, Inc., Canoga Park, Calif.), anti-CD3, anti-CD4, and anti-CD8 (BD Biosciences, San Jose, Calif.). Mouse IgG2a, k FITC (BD Biosciences) was used as isotype control. The cells were then washed 3 times with cold Ca2^+- and Mg2^+-free PBS, resuspended in the same buffer, and immediately analyzed using a FACScan (Becton Dickinson, Franklin Lakes, N.J.) and CellQuest software (BD Biosciences). Results were generated from data gathered from 10,000 live cells and expressed as percent-positive cells and mean fluorescence intensity (MFI). The MFI value was collected in log scale and used to express levels of fluorescence determined by measuring the average for all cells in the fluorescence dot plot.

T-VNTR-3 T cell line = assay: IFN-γ production by VNTR-3-specific T cell line stimulated with agonist or native peptide; format: cell-based, human; details: APC:T 3:1, 24 hours
Method: as §1

HLA-A2 molecules [3] = molecular target: T1, HLA-A2 molecules; assay: Stability of peptide/HLA-A2 complexes (percentage of remaining complexes over time); format: binding; details: time points 0, 2, 4, 6, 8, 10 h
Method: The stability of the peptide/HLA-A2 complexes of the analogs and native peptides were analyzed by determining the percentage of the remaining complexes on HLA-A2 molecules at different time points (0, 2, 4, 6, 8, and 10 h).
The stability of the peptide/HLA-A2 complexes of the analogs and native peptides was analyzed by determining the percentage of the remaining complexes on HLA-A2 molecules at different time points (0, 2, 4, 6, 8, and 10 h).

For ALAIVYLIAL [Peptide P1172], the IFN-γ [1] was 158.3 pg/mL.
APDTRPAPG [VNTR-4] was tested, and the IFN-γ (T-VNTR-5 T cell line; peptide 1.56 μg/mL) was 19.8 pg/mL, the IFN-γ (T-VNTR-5 T cell line; peptide 3.13 μg/mL) was 53.2 pg/mL and the IFN-γ (T-VNTR-5 T cell line; peptide 6.25 μg/mL) was 63.1 pg/mL. The IFN-γ (T-VNTR-5 T cell line; peptide 12.5 μg/mL) was 109.3 pg/mL and the IFN-γ (T-VNTR-5 T cell line; peptide 25 μg/mL) was 117.9 pg/mL.
GLFDEYLEMV [NGEP (P703)] was tested, and the “T2 Binding (mean fluorescence intensity)” value (HLA-A2 molecules [2]) was 481.93 MFI and the “T2A2 Binding (mean fluorescence intensity)” value (HLA-A2 molecules [2]) was 485.3 MFI.
In the case of HLFGYSWYK [CAP-7], the “T2 Binding (mean fluorescence intensity)” value (HLA-A2 molecules [2]) is reported as 109.1 MFI and the “T2A2 Binding (mean fluorescence intensity)” value (HLA-A2 molecules [2]) is reported as 83.8 MFI.
With SLSYTNPAV [Peptide P1240] the IFN-γ [1] was 437.3 pg/mL.
For STAPPAHGV [VNTR-2], the IFN-γ (T-VNTR-3 T cell line; peptide 1.56 μg/mL) was 29.0 pg/mL, the IFN-γ (T-VNTR-3 T cell line; peptide 3.13 μg/mL) was 75.8 pg/mL and the IFN-γ (T-VNTR-3 T cell line; peptide 6.25 μg/mL) was 127.0 pg/mL. The IFN-γ (T-VNTR-3 T cell line; peptide 12.5 μg/mL) was 203.0 pg/mL and the IFN-γ (T-VNTR-3 T cell line; peptide 25 μg/mL) was 261.0 pg/mL.
In the case of YLAIVYLIAL [P1172(1Y)], the “Stability of peptide/HLA-A2 complexes, analog versus native peptide” value (HLA-A2 molecules [3]) is reported as “No differences”, the IFN-γ [1] is reported as 605.0 pg/mL and the “IFN-γ production by agonist peptide-specific T-cell line, agonist versus native peptide” value (from here on “IFN-γ production … agonist versus native peptide”) [1] is reported as “greatest level of IFN-γ production”.
With YLAPPAHGV [VNTR-3] the IFN-γ (T-VNTR-3 T cell line; peptide 1.56 μg/mL) was 304.9 pg/mL, the IFN-γ (T-VNTR-3 T cell line; peptide 3.13 μg/mL) was 457.6 pg/mL and the IFN-γ (T-VNTR-3 T cell line; peptide 6.25 μg/mL) was 685.3 pg/mL. The IFN-γ (T-VNTR-3 T cell line; peptide 12.5 μg/mL) was 766.1 pg/mL, the IFN-γ (T-VNTR-3 T cell line; peptide 25 μg/mL) was 771.5 pg/mL and the “Stability of peptide/HLA-A2 complexes, analog versus native peptide” value (HLA-A2 molecules [3]) was “greater avidity for class I molecules than the native peptides”.
YLDTRPAPV [VNTR-5] was tested, and the “Stability of peptide/HLA-A2 complexes, analog versus native peptide” value (HLA-A2 molecules [3]) was “greater avidity for class I molecules than the native peptides”, the IFN-γ (T-VNTR-5 T cell line; peptide 1.56 μg/mL) was 205.1 pg/mL and the IFN-γ (T-VNTR-5 T cell line; peptide 3.13 μg/mL) was 322.0 pg/mL. It also gave an IFN-γ (T-VNTR-5 T cell line; peptide 6.25 μg/mL) of 452.9 pg/mL, an IFN-γ (T-VNTR-5 T cell line; peptide 12.5 μg/mL) of 496.2 pg/mL and an IFN-γ (T-VNTR-5 T cell line; peptide 25 μg/mL) of 543.7 pg/mL.
YLIALAVCQC [Peptide P1177] showed an IFN-γ [1] of 666.4 pg/mL.
In the case of YLIALAVCQV [P1177(10V)], the “Stability of peptide/HLA-A2 complexes, analog versus native peptide” value (HLA-A2 molecules [3]) is reported as “greater avidity for class I molecules than the native peptide P1177 at each time point”, the IFN-γ [1] is reported as >1,000 pg/mL and the “IFN-γ production … agonist versus native peptide” value [1] is reported as “greatest level of IFN-γ production”.
In the case of YLSYTNPAV [P1240(1Y)], the “Stability of peptide/HLA-A2 complexes, analog versus native peptide” value (HLA-A2 molecules [3]) is reported as “No differences”, the IFN-γ [1] is reported as >1,000 pg/mL and the “IFN-γ production … agonist versus native peptide” value [1] is reported as “greatest level of IFN-γ production”.
